Measurements from patent US12673050B2, “Compositions and their use for the treatment of A1-antitrypsin deficiency” (Centessa Pharmaceuticals (UK) Limited, priority 2021, dated 2026).
pIC50: −log10 of the molar value.

Legend:
[1] = Plasma protein binding by rapid equilibrium dialysis, human plasma; type: in vitro ADME; details: 37° C.
Description: (§1) The extent to which (S)-1-((2-(trifluoromethyl)phenyl)sulfonyl)piperidine-3-carboxylic acid and (R)-1-((2-(trifluoromethyl)phenyl)sulfonyl)piperidine-3-carboxylic acid bound to plasma proteins such as albumin and alpha-1 acid glycoprotein within human or mouse blood was determined by rapid equilibrium dialysis. Compounds were incubated at 5 μM for 4 hours at 37° C. Plasma protein binding in mouse plasma was 78.1% and in human plasma was 91.5% for (S)-1-((2-(trifluoromethyl)phenyl)sulfonyl)piperidine-3-carboxylic acid. Plasma protein binding in mouse plasma was 83.8% and in human plasma was 90.5% for (R)-1-((2-(trifluoromethyl)phenyl)sulfonyl)piperidine-3-carboxylic acid.

[2] = Human hepatocyte stability; type: in vitro ADME; details: cryopreserved hepatocytes, mixed human hepatocyte suspension, 37° C.; for hepatocyte CLint: read-out: intrinsic clearance (CLint) in human hepatocytes
Description: (§2) The intrinsic clearance (CLint) and half-life of (S)-1-((2-(trifluoromethyl)phenyl)sulfonyl)piperidine-3-carboxylic acid and (R)-1-((2-(trifluoromethyl)phenyl)sulfonyl)piperidine-3-carboxylic acid were measured in a hepatocyte suspension of cryopreserved male C57BL6 mouse hepatocytes or a mixed hepatocyte suspension of cryopreserved human hepatocytes. Briefly, the compounds were incubated with hepatocyte suspensions at 37° C. over a time course and the remaining compound at each time point was assessed by mass spectrometry (UPLC-MS/MS). CLint in mouse hepatocytes was <3 μl/min/10^6 cells and in human hepatocytes was <3 μl/min/10^6 cells for both compounds.

[3] = target: T1, human M A1AT (Homo sapiens, UniProt P01009); experiment: A1AT cell secretion assay using HEK-M cells (ELISA); type: cell-based; details: 10 μM, 48 h
T1 construct: expressed in transfected cells; host or cells: HEK-M cells (HEK-EBNA with M A1AT plasmid)
Description: HEK-M cells, a human embryonic kidney cell line stably transfected with M A1AT, were plated into 96 well plates (3.0×10^5 cells/ml with 200 μl of media/well) overnight at 37° C. in a humidified atmosphere containing 5% CO2. Following incubation cells were washed with 200 μl serum-free media three times and media was replaced with serum-free media containing either vehicle, 10 μM suberanilohydroxamic acid (SAHA), (S)-1-((2-(trifluoromethyl)phenyl)sulfonyl)piperidine-3-carboxylic acid (at 10 μM) or (R)-1-((2-(trifluoromethyl)phenyl)sulfonyl)piperidine-3-carboxylic acid (at 10 μM) in replicates of six for 48 h in a 37° C. incubator in a final volume of 200 μl. At the end of the incubation step the supernatants were removed from the wells, centrifuged at 1000×g at 4° C. for 10 min and were assayed for human A1AT levels by ELISA (Human Serpin A1/α1 antitrypsin duo set ELISA, R& D Systems, DY1268) per manufacturer's instructions.
Briefly, a 96 well plate was coated with human A1AT capture antibody overnight at room temperature (1:180 dilution from stock, 100 μl final volume/well). The capture antibody was then removed and wells washed three times with 300 μl wash buffer (0.05% Tween in PBS) and then 200 μl reagent diluent (25% Tween 20 in PBS) was incubated in each well for 1 h at room temperature. Diluted samples, standards (125, 250, 500, 1000, 2000, 4000 and 8000 pg/ml A1AT) or blanks were then added to each well in duplicate and the plates were covered with a plate sealer and left at room temperature for 2 h. […] After which, 50 μl stop solution (2M H2SO4) was added and optical density (OD) of each well was read at 450 nm with 570 nm blank subtracted from each well using a microplate reader. A 4 parameter logistic curve was constructed using GraphPad Prism 7 and A1AT concentrations were determined in each sample by interpolation from a standard curve and multiplying by the appropriate dilution factor.
The amount of human A1AT secreted from transfected HEK-EBNA cells into the media was measured by ELISA. […]

[4] = Pharmacokinetics in mice (blood, UPLC-MS/MS); type: in vivo, mouse; details: for Cmax / AUC / AUC(0-inf) / half-life / clearance / Vd: mouse, whole blood, male C57Bl/6 mice, blood; for Cmax: po, orally 10 mg/kg by gavage; for AUC / AUC(0-inf) / half-life / clearance / Vd: intravenously 2 mg/kg or orally 10 mg/kg; for half-life: read-out: Half-life in blood (t1/2) (converted); for clearance: read-out: Observed clearance; for Vd: read-out: Volume of distribution (Vz)
Description: (§3) (S)-1-((2-(trifluoromethyl)phenyl)sulfonyl)piperidine-3-carboxylic acid was administered to male C57BI/6 mice intravenously (2 mg/kg) or orally (10 mg/kg) by gavage. Whole blood diluted with water was prepared from these dosed animals over a time course up to 24 hours post dose to allow blood concentrations of drug to be measured by UPLC-MS/MS.
as §3, with “(R)-1-((2-(trifluoromethyl)phenyl)sulfonyl)piperidine-3-carboxylic” for “(S)-1-((2-(trifluoromethyl)phenyl)sulfonyl)piperidine-3-carboxylic”

[5] = Plasma protein binding by rapid equilibrium dialysis, mouse plasma; type: in vitro ADME; details: 37° C.
Description: as §1

[6] = target: T2, CYP 2C9 (Homo sapiens, UniProt P11712); experiment: CYP inhibition, E. coli CYPEX membranes with probe substrates; type: in vitro ADME
T2 construct: purchased CYPEX; host or cells: E. coli
Description: Using E. coli CYPEX membranes in combination with specific probe substrates, the inhibition of individual CYPs by (S)-1-((2-(trifluoromethyl)phenyl)sulfonyl)piperidine-3-carboxylic acid and (R)-1-((2-(trifluoromethyl)phenyl)sulfonyl)piperidine-3-carboxylic acid was assessed (see Weaver et al., 2003, Drug Metab Dispos 31:7, 955-966).

[7] = Mouse hepatocyte stability; type: in vitro ADME; details: male, C57BL6, cryopreserved hepatocytes in suspension, 37° C.; for hepatocyte CLint: read-out: intrinsic clearance (CLint) in mouse hepatocytes
Description: as §2

T1 sequence (P01009 25-418): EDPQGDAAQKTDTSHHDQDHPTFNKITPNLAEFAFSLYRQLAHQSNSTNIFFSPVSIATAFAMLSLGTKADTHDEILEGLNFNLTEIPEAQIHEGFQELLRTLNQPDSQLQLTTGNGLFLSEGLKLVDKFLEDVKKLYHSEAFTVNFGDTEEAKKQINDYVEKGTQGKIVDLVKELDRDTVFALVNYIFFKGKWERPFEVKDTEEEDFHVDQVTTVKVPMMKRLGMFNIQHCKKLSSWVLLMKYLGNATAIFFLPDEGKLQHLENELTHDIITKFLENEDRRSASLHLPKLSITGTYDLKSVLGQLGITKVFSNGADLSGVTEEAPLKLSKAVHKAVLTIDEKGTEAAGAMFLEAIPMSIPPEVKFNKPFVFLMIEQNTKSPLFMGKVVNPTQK
T2 sequence (P11712 whole entry): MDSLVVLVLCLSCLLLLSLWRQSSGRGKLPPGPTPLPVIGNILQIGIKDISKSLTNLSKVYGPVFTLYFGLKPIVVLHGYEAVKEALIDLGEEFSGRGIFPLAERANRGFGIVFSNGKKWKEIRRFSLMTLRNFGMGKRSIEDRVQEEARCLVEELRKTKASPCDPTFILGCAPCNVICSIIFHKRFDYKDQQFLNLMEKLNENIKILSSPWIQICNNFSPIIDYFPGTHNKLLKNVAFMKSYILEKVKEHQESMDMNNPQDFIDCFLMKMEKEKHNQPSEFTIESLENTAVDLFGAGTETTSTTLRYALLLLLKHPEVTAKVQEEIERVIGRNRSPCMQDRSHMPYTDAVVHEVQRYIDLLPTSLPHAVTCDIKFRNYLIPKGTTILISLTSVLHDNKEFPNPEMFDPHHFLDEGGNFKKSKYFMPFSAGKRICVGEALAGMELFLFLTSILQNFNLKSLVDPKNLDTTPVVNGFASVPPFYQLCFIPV

With `O=C(O)[C@H]1CCCN(S(=O)(=O)c2ccccc2C(F)(F)F)C1` [(S)-1-((2-(Trifluoromethyl)phenyl)sulfonyl)piperidine-3-carboxylic acid] the fraction unbound at 4 h, 5 μM [1] was 0.085, the half-life [2] was > 7.67 h and the hepatocyte CLint [2] was < 3 µL/min/1e6 cells. The “secretion of human M A1AT into cell supernatant” value [3] was “does not stimulate secretion of human M A1AT”, the Cmax [4] was 33500 ng/mL and the AUC [4] was 54200 ng·h/mL. The AUC(0-inf) [4] was 54400 ng·h/mL, the half-life [4] was 1.2 h and the clearance [4] was 4.7 mL/min/kg. For the same compound, the Vd [4] was 0.49 L/kg, the fraction unbound at 4 h, 5 μM [5] was 0.219 and the pIC50 [6] was < 4.30. The half-life [7] was > 7.67 h and the hepatocyte CLint [7] was < 3 µL/min/1e6 cells.

For `O=C(O)[C@@H]1CCCN(S(=O)(=O)c2ccccc2C(F)(F)F)C1` [(R)-1-((2-(Trifluoromethyl)phenyl)sulfonyl)piperidine-3-carboxylic acid], the fraction unbound at 4 h, 5 μM [1] was 0.095, the half-life [2] was > 7.67 h and the hepatocyte CLint [2] was < 3 µL/min/1e6 cells. For the same compound, the “secretion of human M A1AT into cell supernatant” value [3] was “does not stimulate secretion of human M A1AT”, the “AUC lower than S enantiomer” value ([4]; mice, Examples 7 and 8) was 2.2 fold and the “t½ shorter than S enantiomer” value ([4]; mice, Examples 7 and 8) was 2.2 fold. It also gave a Cmax [4] of 15600 ng/mL, an AUC [4] of 24200 ng·h/mL and an AUC(0-inf) [4] of 24700 ng·h/mL. For the same compound, the half-life [4] was 0.54 h, the clearance [4] was 8.2 mL/min/kg and the Vd [4] was 0.38 L/kg. The fraction unbound at 4 h, 5 μM [5] was 0.162, the pIC50 [6] was < 4.30 and the half-life [7] was > 7.67 h. The hepatocyte CLint [7] was < 3 µL/min/1e6 cells.
